Reference: paper PMC6161601 (Journal of Enzyme Inhibition and Medicinal Chemistry, 2018)
Where “and” joins values, the source holds several entries; their conditions need not be identical. Equal entries are not always repeated. Entries after “also recorded” stand apart in the source; their conditions may differ. Where two headings read alike, the source gives them in different places.

Tests used:
Aβ42 peptide = target: T1, Aβ42 peptide (Homo sapiens, UniProt P05067); experiment: Beta-amyloid (Aβ 1–42) aggregation, SensoLyte ThT kit; type: biochemical
T1 construct: Beta-amyloid (Aβ 1–42) aggregation studies were conducted using SensoLyte ThT Aβ42 Aggregation kit; purchased AnaSpec, Inc, Fremont, CA
Experimental: Beta-amyloid (Aβ 1–42) aggregation studies were conducted using SensoLyte ThT Aβ42 Aggregation kit (AnaSpec, Inc, Fremont, CA). Aβ42 peptide was dissolved in cold (4 °C) assay buffer and left to hydrate for a few minutes. The solution was spined at 10,000 rpm for 5 min at 4 °C to centrifuge out any precipitated material. […] The final volume of the test samples was 100 µL. Simultaneously, the positive control and negative control containing morin at the final concentration of 100 µmol/L were established. […] The measurements of fluorescence intensity expressed as relative fluorescence units (RFU) were taken for 90 min with 5 min intervals. The fluorescence intensity measured for positive control equals 100% of Aβ aggregation and was used for estimation of inhibition properties of tested biguanides.
Statistical analysis of data obtained in Aβ aggregation assay was conducted with a commercially available package (GraphPad Prism 5, La Jolla, CA). The results were expressed as the mean ± standard deviation (SD) of measurements conducted in triplicates or quadruplicates. One or two-way ANOVA and subsequent post hoc tests were used for intergroup comparisons. The results were considered significant at p values lower than 0.05.

[1] = target: T2, human plasma butyrylcholinesterase (BuChE) (Homo sapiens, UniProt P06276); experiment: Kinetic parameters and type of BuChE inhibition (Hanes–Woolf); type: biochemical; settings: for Vmax(i) BuChE: mean ± SD
T2 construct: Plasma for determination of BuChE activity was obtained by centrifuging the blood; from tissue; host or cells: plasma of healthy human donors
Experimental: (§1) The absorbance was recorded at λ = 436 nm using a CECIL 2021 spectrophotometer (CECIL Instruments Limited, Cambridge, UK) with a thermostatic water flow (temperature 37° C).
(§2) AChE Selectivity Index (SI) was calculated with the aid of the following formula: SI = IC50 of BChE/IC50 of AChE. In turn BuChE SI was defined as IC50 of AChE/IC50 of BChE. Linear regression (Hanes–Woolf plots) were used to estimate the maximal velocity (Vmax) and the Michaelis constant (Km).
(§3) To establish the type of inhibition, additional experiments were conducted with various concentrations of substrates (ATC, BTC), and the kinetic parameters of the enzymatic reactions were obtained using Hanes–Woolf equation, which is a graphical representation of enzyme kinetics in which the ratio of the initial substrate concentration [S] to the reaction velocity v is plotted against [S]. […]

[2] = Intracellular uptake in in vitro cellular model (unpublished data); type: in vitro ADME; settings: depending on the cell line
[3] = target: T3, human erythrocyte acetylcholinesterase (AChE) (Homo sapiens, UniProt P22303); experiment: biochemical
T3 construct: from tissue; host or cells: haemolysed erythrocytes of healthy human donors
Experimental: (§4) Blood samples were obtained from healthy donors from the Voievodal Specialized Hospital in Łódź, Poland (Wojewódzki Specjalistyczny Szpital im. Dr W. Biegańskiego w Łodzi). The blood was collected into vacuum tubes containing sodium citrate. Erythrocytes were separated from plasma by centrifugation (3000 × g, 10 min, 20 °C) with a Micro 22 R centrifuge (Hettich ZENTRIFUGEN, Tuttlingen, Germany) and washed three times with 0.9% saline. Afterwards, red cells were haemolysed by freezing and stored at a temperature of –30 °C; before each experiment, they were restored at 37° C for 15 min and used to determine AChE activity. […] The studies on the biological material were approved by the Bioethics Committee of the Medical University of Lodz (RNN/27/18/KE).
(§5) The activity of both cholinesterases (AChE and BuChE) were conducted using a spectrophotometric method developed by Ellman with previously described modifications[25]^,[30]. […] 400-fold diluted solution of haemolysed erythrocytes or diluted plasma (200 times) was incubated for 15 min (37° C) with DTNB and tested compound at an appropriate concentration, and the reaction was started by addition of substrate (ATC or BTC). The final volume of a sample was 500 µL.
as §2

[4] = target: T2, human plasma butyrylcholinesterase (BuChE); experiment: biochemical
Experimental: as §4, §5, §2

erythrocytes = settings: 6–1500 μmol/L; cited from earlier work
[5] = test system: human umbilical vein endothelial cells (HUVECs); experiment: HUVEC viability and integrity, real-time electrical impedance system (unpublished data); type: cell-based
Experimental: At lower concentrations of substrate, BuChE activity is related to Michaelis–Menten kinetics and its enzymatic activity is based on the formation of an enzyme–substrate complex [ES]. At higher substrate levels (> 1 mM) BuChE presents greater activity related to the formation of a substrate-activated complex [SES][33]. […] This fact is of vital importance when studying BuChE inhibitors as in vivo the concentration of ACh in the synaptic cleft is estimated to be about 5 mM^33, which imply that substrate activated form of BuChE is present in the synaptic cleft.

BuChE = target: T4, BuChE (Homo sapiens, UniProt P06276); experiment: BuChE inhibition with excess of substrate (BTC); type: biochemical; settings: for inhibition at 375 µM: compound at 375 µmol/L
T4 construct: Plasma for determination of BuChE activity was obtained by centrifuging the blood; from tissue; host or cells: plasma of healthy human donors

AChE = target: T5, AChE (Homo sapiens, UniProt P22303); type: biochemical
T5 construct: 400-fold diluted solution of haemolysed erythrocytes or diluted plasma (200 times) was incubated; from tissue; host or cells: haemolysed erythrocytes of healthy human donors

[6] = target: T3, human erythrocyte acetylcholinesterase (AChE); experiment: Kinetic parameters and type of AChE inhibition (Hanes–Woolf); type: biochemical; settings: for Vmax(i) AChE: mean ± SD
Experimental: as §1, §2, §3

[7] = target: T2, human plasma butyrylcholinesterase (BuChE); settings: published previously; cited from earlier work

T4 sequence (P06276 29-602): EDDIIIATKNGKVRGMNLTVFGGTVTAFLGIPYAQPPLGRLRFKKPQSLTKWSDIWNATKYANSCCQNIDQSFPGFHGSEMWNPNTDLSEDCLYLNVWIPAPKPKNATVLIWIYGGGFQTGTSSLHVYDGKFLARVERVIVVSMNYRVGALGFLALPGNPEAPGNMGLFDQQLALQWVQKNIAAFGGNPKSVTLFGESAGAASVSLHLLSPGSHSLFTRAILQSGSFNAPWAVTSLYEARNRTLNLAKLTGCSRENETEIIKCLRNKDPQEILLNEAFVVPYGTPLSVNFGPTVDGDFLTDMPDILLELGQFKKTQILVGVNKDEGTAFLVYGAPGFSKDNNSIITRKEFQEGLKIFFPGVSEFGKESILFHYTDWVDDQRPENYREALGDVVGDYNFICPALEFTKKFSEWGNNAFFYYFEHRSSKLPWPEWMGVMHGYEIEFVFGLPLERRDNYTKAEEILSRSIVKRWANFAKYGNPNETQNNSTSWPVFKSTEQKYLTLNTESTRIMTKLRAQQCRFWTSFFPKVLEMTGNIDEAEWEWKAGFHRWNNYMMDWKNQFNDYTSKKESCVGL
T2 sequence (P06276 29-602): as above
T1 sequence (P05067 672-713): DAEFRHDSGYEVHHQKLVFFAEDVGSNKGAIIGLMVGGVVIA
T3 sequence (P22303 other isoform, or with tags, fused parts or gaps): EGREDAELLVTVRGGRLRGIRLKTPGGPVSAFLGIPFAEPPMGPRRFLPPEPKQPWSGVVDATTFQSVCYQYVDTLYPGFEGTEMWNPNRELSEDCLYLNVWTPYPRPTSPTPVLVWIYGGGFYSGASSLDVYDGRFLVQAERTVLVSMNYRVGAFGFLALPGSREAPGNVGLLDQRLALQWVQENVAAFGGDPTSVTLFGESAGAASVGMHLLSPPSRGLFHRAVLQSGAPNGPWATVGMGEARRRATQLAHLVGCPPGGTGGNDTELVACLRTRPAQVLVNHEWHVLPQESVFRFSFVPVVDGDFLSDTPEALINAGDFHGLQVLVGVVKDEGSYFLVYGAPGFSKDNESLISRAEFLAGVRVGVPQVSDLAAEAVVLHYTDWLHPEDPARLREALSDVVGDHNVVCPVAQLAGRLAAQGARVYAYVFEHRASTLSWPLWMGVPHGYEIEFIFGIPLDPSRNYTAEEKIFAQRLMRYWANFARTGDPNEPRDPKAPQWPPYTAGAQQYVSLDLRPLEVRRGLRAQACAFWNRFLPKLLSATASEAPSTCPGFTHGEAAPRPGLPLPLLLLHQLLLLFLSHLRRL
T5 sequence (P22303 other isoform, or with tags, fused parts or gaps): as above

## CN(C)C(=N)N=C(N)NS(=O)(=O)c1ccc(C(F)(F)F)cc1[N+](=O)[O-] [Compound 5]
Aβ42 peptide; 100 µmol/L, two-way ANOVA
  activity vs morin 100 µmol/L: significantly lower in comparison with morin
Aβ42 peptide; 200 µmol/L, two-way ANOVA, p > 0.05
  inhibitory property vs morin 100 µmol/L: comparable with those of morin
Aβ42 peptide; 200 µmol/L, vs control
  inhibition at 200 µM: ~20%
Aβ42 peptide; 100 and 200 µmol/L, after 60 min of reaction initiation
  Aβ aggregation decreased up to: ~80%
[1]
  I: type of inhibition, BuChE: M (M: mixed type)
  type of BuChE inhibition: mixed inhibition; also recorded: mixed manner; also recorded: Mixed type
[1]; B: inhibitor at 1/3 of IC50
  vmax BuChE, mean ± SD: 242.44 ± 12.47 mA/min
  Vmax(i) BuChE: 0.242 ± 0.012 A/min
[1]; C: inhibitor at IC50
  vmax BuChE, mean ± SD: 202.78 ± 2.42 mA/min
  Vmax(i) BuChE: 0.202 ± 0.002 A/min
[1]; inhibitor at 1/3 of IC50
  vmax BuChE, individual experiments B1–B3: 243.730 mA/min and 229.384 mA/min and 254.233 mA/min
[1]; inhibitor at IC50
  vmax BuChE, individual experiments C1–C3: 204.771 mA/min and 200.088 mA/min and 203.508 mA/min
[2]
  intracellular uptake relative to metformin: 70–80 fold
[3]; IC50 BChE/IC50 AChE
  SI AChE: 3.23
[3]; compound at 150.0 µmol/L
  inhibition at 150 µM: 35 ± 7.18%
[3]; human erythrocyte AChE, mean ± SD of three independent experiments
  IC50: 212 ± 48.3 µM
[4]; IC50(AChE)/IC50(BChE)
  SI BuChE: 0.31
[4]; human plasma BuChE, mean ± SD of three independent experiments
  IC50: 686 ± 86.4 µM
erythrocytes
  erythrocytes membrane disintegration: does not contribute to the erythrocytes membrane disintegration
[5]; 300 μmol/L, 12–72 h of incubation
  decrease in HUVEC adhesion and viability: ~20%
[5]; 6–100 μmol/L
  effect on HUVEC viability: did not affect cell viability
BuChE; BTC 2.5 μmol/mL, various compound concentrations (Figure 8B)
  BuChE inhibition, maximal: up to 31.89 ± 6.22%
BuChE; BTC 0.75 mmol/L
  inhibition at 375 µM: 27.5 ± 8.61%
BuChE; BTC 2.5 mmol/L
  inhibition at 375 µM: ≤ 15.6%
AChE; at 1/2 IC50 for AChE
  type of AChE inhibition: mixed-type
AChE; each at 1/2 IC50 for AChE: metformin 1175, donepezil 0.0125, compound 5 106.0 µmol/L, alone or in mixture
  Vmax AChE: 0.206 ± 0.008 A/min
[6]
  I: type of inhibition, AChE: M (M: mixed type)
  type of AChE inhibition: mixed-type; also recorded: mixed inhibition; also recorded: mixed way
[6]; B: inhibitor at 1/3 of IC50
  vmax AChE, mean ± SD: 175.32 ± 33.25 mA/min
  Vmax(i) AChE: 0.175 ± 0.033 A/min
[6]; C: inhibitor at IC50
  vmax AChE, mean ± SD: 146.12 ± 40.50 mA/min
  Vmax(i) AChE: 0.146 ± 0.040 A/min
[6]; inhibitor at 1/3 of IC50
  vmax AChE, individual experiments B1–B3: 183.000 mA/min and 204.073 mA/min and 138.914 mA/min
[6]; inhibitor at IC50
  vmax AChE, individual experiments C1–C3: 173.750 mA/min and 165.000 mA/min and 99.631 mA/min

## [H]/N=C(/N)N/C(=N/[H])NCCc1ccccc1 [Phenformin, phenformin, reference compound]
[7]
  IC50: 259 ± 31 µM
[4]; at 150 µmol/L
  inhibition at 150 µM: 44.7 ± 1.23%
